Data as given in publication PMC7930289 (Heliyon, 2021).
pKi: −log10 of the molar value.

Columns and labels:
[1] = biological target: hPMCA4 overexpressed in HEK293T cells (Homo sapiens, UniProt P23634); experiment: Dynamics of cytoplasmic Ca2+ in HEK293T cells overexpressing hPMCA4; assay type: cell-based; conditions: 50 μM, 30 min; for AUC of [Ca2+]CYT after TG addition: 2 μM TG
Na+/K+-ATPase = conditions: read-out: Ki (Na+/K+-ATPase activity); cited from earlier work

Sequence of hPMCA4 overexpressed in HEK293T cells (P23634 1-1205 isoform P23634-6): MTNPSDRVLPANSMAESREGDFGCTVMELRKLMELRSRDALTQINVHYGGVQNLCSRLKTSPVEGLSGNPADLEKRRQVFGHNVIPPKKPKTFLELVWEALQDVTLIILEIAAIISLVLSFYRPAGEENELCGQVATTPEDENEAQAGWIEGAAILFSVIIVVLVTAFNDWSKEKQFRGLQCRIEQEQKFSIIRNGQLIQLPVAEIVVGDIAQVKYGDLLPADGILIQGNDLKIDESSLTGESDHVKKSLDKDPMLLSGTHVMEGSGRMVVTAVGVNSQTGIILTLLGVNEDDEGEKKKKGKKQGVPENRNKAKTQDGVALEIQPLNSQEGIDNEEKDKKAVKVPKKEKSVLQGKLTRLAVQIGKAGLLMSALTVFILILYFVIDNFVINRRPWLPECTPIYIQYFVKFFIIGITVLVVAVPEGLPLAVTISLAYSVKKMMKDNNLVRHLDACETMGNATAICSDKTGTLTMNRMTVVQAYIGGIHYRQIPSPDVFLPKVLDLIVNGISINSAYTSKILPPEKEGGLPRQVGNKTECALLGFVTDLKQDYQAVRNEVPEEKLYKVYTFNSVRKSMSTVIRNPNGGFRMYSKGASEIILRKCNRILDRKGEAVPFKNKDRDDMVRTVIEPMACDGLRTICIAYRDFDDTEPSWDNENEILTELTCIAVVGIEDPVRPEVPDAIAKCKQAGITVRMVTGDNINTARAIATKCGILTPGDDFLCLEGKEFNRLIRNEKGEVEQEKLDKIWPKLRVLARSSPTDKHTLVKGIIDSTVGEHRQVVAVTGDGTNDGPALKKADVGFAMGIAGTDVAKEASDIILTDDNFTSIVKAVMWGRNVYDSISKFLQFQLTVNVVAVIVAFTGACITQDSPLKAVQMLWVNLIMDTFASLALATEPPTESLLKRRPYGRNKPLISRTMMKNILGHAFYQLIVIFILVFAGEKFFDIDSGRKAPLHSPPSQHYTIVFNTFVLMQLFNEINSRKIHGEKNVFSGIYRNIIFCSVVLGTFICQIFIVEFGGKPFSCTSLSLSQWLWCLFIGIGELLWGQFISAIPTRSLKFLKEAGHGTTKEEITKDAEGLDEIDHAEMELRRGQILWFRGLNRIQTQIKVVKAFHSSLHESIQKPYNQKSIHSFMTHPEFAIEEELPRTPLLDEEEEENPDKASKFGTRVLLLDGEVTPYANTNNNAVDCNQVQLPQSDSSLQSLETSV

- hPMCA4 activity in HEK293T cells (Eq. 6) [1]: significantly decreased
- AUC of [Ca2+]CYT after TG addition ([1]; HEK293T-hPMCA4 cells): induced an increase in the AUC value
- AUC of [Ca2+]CYT after TG addition ([1]; HEK293T-mock cells): no significant effect
SMILES: O=C(O[C@@H]1Cc2c(O)cc(O)cc2O[C@@H]1c1cc(O)c(O)c(O)c1)c1cc(O)c(O)c(O)c1 [EGCG, (−)-cis-3,3′,4′,5,5′,7-Hexahydroxy-flavane-3-gallate]
- pKi (Na+/K+-ATPase): 6.00
